The text below walks through data of patent publication US12201627B2, “NLRP3 modulators” (Innate Tumor Immunity, Inc., priority 2018, dated 2025).

The target of one assay is T1, NLRP3 (Homo sapiens, UniProt Q96P20).
T1 construct: host or cells: PMA-differentiated THP-1 cells
T1 sequence (Q96P20 whole entry): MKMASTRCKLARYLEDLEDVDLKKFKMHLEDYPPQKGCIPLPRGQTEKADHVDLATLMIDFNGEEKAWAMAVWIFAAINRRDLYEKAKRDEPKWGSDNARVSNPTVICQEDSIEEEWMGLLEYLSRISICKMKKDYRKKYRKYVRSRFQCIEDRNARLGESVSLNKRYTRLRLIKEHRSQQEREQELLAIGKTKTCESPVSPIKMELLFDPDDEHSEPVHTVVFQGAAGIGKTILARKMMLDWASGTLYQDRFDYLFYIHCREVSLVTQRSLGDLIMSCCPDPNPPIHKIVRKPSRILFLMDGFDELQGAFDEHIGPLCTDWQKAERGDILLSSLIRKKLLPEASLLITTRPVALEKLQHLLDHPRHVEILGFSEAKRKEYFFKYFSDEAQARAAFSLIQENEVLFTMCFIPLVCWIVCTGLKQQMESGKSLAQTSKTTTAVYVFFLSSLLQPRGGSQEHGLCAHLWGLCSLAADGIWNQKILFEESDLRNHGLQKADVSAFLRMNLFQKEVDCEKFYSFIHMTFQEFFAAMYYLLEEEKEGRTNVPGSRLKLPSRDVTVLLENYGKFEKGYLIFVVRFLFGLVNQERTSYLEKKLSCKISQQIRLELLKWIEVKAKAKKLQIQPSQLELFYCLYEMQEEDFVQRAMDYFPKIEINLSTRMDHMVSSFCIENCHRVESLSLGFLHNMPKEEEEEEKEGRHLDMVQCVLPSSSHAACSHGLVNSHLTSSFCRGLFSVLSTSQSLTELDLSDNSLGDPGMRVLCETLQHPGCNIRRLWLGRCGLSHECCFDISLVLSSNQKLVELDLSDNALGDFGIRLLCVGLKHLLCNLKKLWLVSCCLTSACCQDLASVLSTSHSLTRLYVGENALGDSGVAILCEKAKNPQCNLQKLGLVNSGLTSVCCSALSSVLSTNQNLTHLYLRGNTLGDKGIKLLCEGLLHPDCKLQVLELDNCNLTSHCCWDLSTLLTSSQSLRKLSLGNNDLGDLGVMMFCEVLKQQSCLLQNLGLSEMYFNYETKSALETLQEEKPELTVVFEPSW
Kind of assay: Measurement of IL-1β production in PMA-differentiated THP-1 cells (NLRP3 hIL1B). The following applies: read-out: NLRP3 hILIB IC50. The format is cell-based. The procedure: Measurement of IL-1β Production in PMA-Differentiated THP-1 Cells
THP-1 cells were purchased from the American Type Culture Collection and sub-cultured according to instructions from the supplier. Prior to experiments, cells were cultured in RPMI 1640 containing 10% heat inactivated FBS, penicillin (100 units/ml) and streptomycin (100 μg/ml), and maintained in log phase prior to experimental setup. Prior to the experiment THP-1 were treated with PMA (Phorbol 12-myristate 13-acetate) ([…]) for 24 hours. The day of the experiment the media was removed and attaching cells were treated with trypsin for 2 minutes, cells were then collected, washed with PBS (phosphate buffer saline), spin down, resuspended in 2% heat inactivated FBS with RPMI at a concentration of 1×10^6 cells/ml, and 100 μl was plated in a 96 well plate. Compounds were dissolved in dimethyl sulfoxide (DMSO) and added to the culture medium to achieve desired concentration (e.g. 100, 30, 10, 3, 1, 0.3 or 0.1 μM). Cells were incubated with compounds for 4 hours. Cell free supernatant was collected and the production of IL-1β was evaluated by ELISA. A vehicle only control was run concurrently with each experiment. Final DMSO concentration was 1%.
Measurement of IL-1β Production in PMA-Differentiated THP-1 Cells (Alternative Procedure)
THP-1 cells were purchased from the American Type Culture Collection and sub-cultured according to instructions from the supplier. Prior to experiments, cells were cultured in RPMI 1640 containing 10% heat inactivated FBS, penicillin (100 units/ml), streptomycin (100 μg/ml), HEPES (10 mM) and sodium pyruvate (1 mM) and maintained in log phase prior to experimental setup. Prior to the experiment, THP-1 cells were treated with PMA (Phorbol 12-myristate 13-acetate) (20 μg/ml) overnight. The day of the experiment, the media was removed and attached cells were treated with trypsin for 2 minutes, cells were then collected, washed with PBS (phosphate buffer saline), pelleted by centrifugation and resuspended in 2% heat inactivated FBS with RPMI at a concentration of 50,000 cells/well in a 384 well plate. Cell free supernatant was collected and the production of IL-1β was evaluated by ELISA. Compounds were dissolved in dimethyl sulfoxide (DMSO) and added to the culture medium to achieve desired concentration (e.g. 100, 30, 10, 3, 1, 0.3 or 0.1 μM). Cells were incubated with compounds for 2 hours. A vehicle only control was run concurrently with each experiment. Final DMSO concentration was 1%.
Measurement of IL-1β Production—hTRF Protocol (Second Alternative Procedure)
Serial dilutions of compounds in DMSO were added to low volume 384 well plates at 100 nl/well using an ECHO 550 acoustic dispenser (Labcyte) to achieve final starting concentration of 10 μM in assay.
THP-1 cells in RPMI (Gibco, 11875) media with 10% FBS at a density of 1×10^6 cell/ml in a T175 flask were treated with a final concentration of phorbol 12-myristate 13-acetate (PMA) (Sigma, P1585) of 50 ng/ml overnight at 37° C. at 5% CO2 for differentiation. Cells were harvested the next day after rinsing well with dPBS using 0.5% trypsin. A cell solution was prepared of 1×10^6 cells/ml for 50,000 cells in 50 μl/well in RPMI media with 2% FBS. Cells were plated using a multichannel pipette onto the compound dilutions in Greiner, 384 well, black clear bottom tissue culture treated plates (781090). The plates were incubated in 37° C. incubator at 5% CO2 for 2 hours.
After the 2 hour incubation, the cell plates were spun in the centrifuge for 5 minutes at 1200 rpm. Using the Felix (CyBio), 8 μl of the supernatant was transferred to 384 well, low volume, white proxy plates. (Perkin Elmer, 6008230). A human IL1beta hTRF kit was used to analyze the supernatant (CISBIO, 62HIL1BPEG). The kit instructions were followed for preparing the IL1Beta standard curve and then the antibodies from the kit were diluted 1:40 rather than 1:20 as kit instructed. […]
Turning to `CC(C)n1c(CN2CC(C#N)C2)nc2c(N)nc3cc(-c4cc[nH]n4)ccc3c21` [Example 13], the IC50 was found to be 0.63 µM.
For the molecule `COC1CN(Cc2nc3c(N)nc4cc(-c5cc[nH]n5)ccc4c3n2C2CCC2)C1` [Example 1, 1-cyclobutyl-2-[(3-methoxyazetidin-1-yl)methyl]-7-(1H-pyrazol-5-yl)-1H-imidazo[4,5-c]quinolin-4-amine], the IC50 was 0.12 µM.
On the same count and under the same terms, the value for `Nc1nc2cc(-c3cc[nH]n3)ccc2c2c1nc(CN1CC(F)C1)n2CC(F)F` [Example 3] was 0.22 µM.
On the same count and under the same terms, the result for `Nc1nc2cc(-c3cc[nH]n3)ccc2c2c1nc(CN1CC(O)C1)n2C1CC1` [Example 16] reads 4.8 µM.
The same measure, in the same setting: the result for `CC(C)n1c(CN2CC(C)(O)C2)nc2c(N)nc3cc(-c4cc[nH]n4)ccc3c21` [Example 15] reads 1.1 µM; that for `Nc1nc2cc(-c3cc[nH]n3)ccc2c2c1nc(CN1CC(F)(F)C1)n2CC(F)F` [Example 2], 0.08 µM.
As to `Nc1nc2cc(-c3cc[nH]n3)ccc2c2c1nc(CN1CC3(CCCO3)C1)n2C1CC1` [Example 14], the half-maximal inhibitory concentration (IC50) is 1.61 µM.
Same read-out and setting: the result for `CC1(O)CN(Cc2nc3c(N)nc4cc(-c5cc[nH]n5)ccc4c3n2C2CCC2)C1` [Example 17] reads 2.2 µM.
For the molecule `Nc1nc2cc(-c3cc[nH]n3)ccc2c2c1nc(CN1CC(F)(F)C1)n2C1CCC1` [Example 8], the IC50 came to 0.2 µM.
On the same count and under the same terms, the value for `Nc1nc2cc(-c3cc[nH]n3)ccc2c2c1nc(CN1CC(F)C1)n2C1CCC1` [Example 6] was 0.26 µM.
Still for that read-out and setting: the value for `Nc1nc2cc(-c3cc[nH]n3)ccc2c2c1nc(CN1CCC1)n2C1CC1` [Example 4] was 0.18 µM; that for `Nc1nc2cc(-c3cc[nH]n3)ccc2c2c1nc(CN1CC3(CCCO3)C1)n2C1CCC1` [Example 11] was 0.24 µM; that for `COC1CN(Cc2nc3c(N)nc4cc(-c5cc[nH]n5)ccc4c3n2CC(F)F)C1` [Example 7] was 0.22 µM.
The same measure, in the same setting: the result for `COC1CN(Cc2nc3c(N)nc4cc(-c5cc[nH]n5)ccc4c3n2C2CC2)C1` [Example 5] reads 0.27 µM; that for `Nc1nc2cc(-c3cc[nH]n3)ccc2c2c1nc(CN1CC(F)C1)n2C1CC1` [Example 10], 0.25 µM; that for `N#CC1CN(Cc2nc3c(N)nc4cc(-c5cc[nH]n5)ccc4c3n2C2CC2)C1` [Example 12], 2 µM.

In the next assay the target is T2, human TLR8 (Homo sapiens, UniProt Q9NR97).
T2 construct: host or cells: HEK-Blue cells (human HEK) co-expressing TLR8 and an NF-kB/AP1-inducible SEAP reporter
T2 sequence (Q9NR97 27-1041): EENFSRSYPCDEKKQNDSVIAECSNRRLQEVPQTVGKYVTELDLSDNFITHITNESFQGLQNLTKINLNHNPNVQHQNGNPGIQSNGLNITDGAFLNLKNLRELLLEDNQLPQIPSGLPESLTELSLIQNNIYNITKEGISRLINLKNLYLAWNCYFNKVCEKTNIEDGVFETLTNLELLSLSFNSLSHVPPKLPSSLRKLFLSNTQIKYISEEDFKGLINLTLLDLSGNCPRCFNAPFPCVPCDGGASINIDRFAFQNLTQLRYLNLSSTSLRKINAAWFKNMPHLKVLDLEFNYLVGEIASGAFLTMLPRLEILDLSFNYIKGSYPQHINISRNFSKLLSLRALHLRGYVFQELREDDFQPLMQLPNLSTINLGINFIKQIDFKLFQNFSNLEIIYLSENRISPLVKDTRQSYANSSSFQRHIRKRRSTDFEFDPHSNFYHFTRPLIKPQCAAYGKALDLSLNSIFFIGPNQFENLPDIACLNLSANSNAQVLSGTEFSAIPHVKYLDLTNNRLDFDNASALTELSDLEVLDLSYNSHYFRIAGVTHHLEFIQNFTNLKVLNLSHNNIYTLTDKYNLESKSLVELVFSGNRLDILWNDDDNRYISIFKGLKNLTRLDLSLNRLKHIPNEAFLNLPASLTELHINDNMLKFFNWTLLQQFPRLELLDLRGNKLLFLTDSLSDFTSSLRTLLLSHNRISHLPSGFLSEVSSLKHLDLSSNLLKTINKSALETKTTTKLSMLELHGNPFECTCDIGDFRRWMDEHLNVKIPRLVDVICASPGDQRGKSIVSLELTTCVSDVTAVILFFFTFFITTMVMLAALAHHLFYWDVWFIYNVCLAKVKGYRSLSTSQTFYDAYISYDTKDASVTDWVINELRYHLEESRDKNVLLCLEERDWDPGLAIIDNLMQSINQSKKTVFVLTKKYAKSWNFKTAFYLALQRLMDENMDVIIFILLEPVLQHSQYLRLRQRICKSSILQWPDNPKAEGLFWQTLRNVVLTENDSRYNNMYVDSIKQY
The assay can be described thus: In vitro human TLR8 reporter assay (HEK-Blue cells, NF-kB/AP1-inducible SEAP). The format is cell-based. Conditions: HEK-Blue cells expressing TLR8, SEAP reporter; read-out: TLR8 Agonist EC50. The procedure: In Vitro Human TLR7 and TLR8 Binding Reporter Assays
Logarithmically-growing human HEK-Blue cells co-expressing a TLR7 or TLR8 gene and a NF-kB/AP1-inducible SEAP (secreted embryonic alkaline phosphatase; Invivogen, San Diego, Calif.) reporter gene are added to individual wells of a 384-well plate (15,000 cells per 20 μL per well) and maintained for 24 h at 37° C., 5% CO2. Test compounds or DMSO are distributed to separate wells the next day using acoustic liquid handling technology (100 nL per well) and cells are subsequently incubated for 18 h at 37° C., 5% CO2. Cellular SEAP production is measured using an Envision plate reader instrument thirty minutes after adding freshly-made Quanti-Blue reagent (prepared by following manufacturer instructions; Invivogen, San Diego, Calif.) to the HEK-Blue TLR Nf-kB-SEAP cell reactions. All EC50 values (half-maximal effective concentration) are determined using proprietary data analysis software. Normalized EC50 value=absolute value determined by setting 100% Ymax using a reference standard RLU (relative light unit) values from cells treated with 50 μM of the reference standard.
For the molecule `Nc1nc2cc(-c3cc[nH]n3)ccc2c2c1nc(CN1CC(F)(F)C1)n2CC(F)F` [Example 2], the EC50 is 1 to 20 µM.
